# According to patent US8916132B2, “Benzimidazole-derived compounds use as markers in the case of neurodegenerative diseases” (Servicios Cientificos Neuroinnovation Ltda, priority 2008, dated 2014):
# Read-outs that look alike come from different tables or passages of the source.
# Experiments:
# [1] = molecular target: human tau protein aggregates (PHFs); assay: ^3H-Astemizole saturation binding to tau protein aggregates; details: for Bmax/Kd Index: Tau Protein Aggregates (PHF)
# [2] = molecular target: Aβ1-42 Peptide Aggregates (Homo sapiens, UniProt P05067); assay: ^3H-Astemizole saturation binding to Aβ1-42 peptide aggregates
# Chain of Aβ1-42 Peptide Aggregates (P05067 672-713): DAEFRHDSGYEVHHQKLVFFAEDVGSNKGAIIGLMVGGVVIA
# Alzheimer PHF = Alzheimer PHF (Homo sapiens, UniProt P10636); assay: ^3H-Astemizole displacement test, Alzheimer PHF
# Chain of Alzheimer PHF (P10636 623-758 limits assumed): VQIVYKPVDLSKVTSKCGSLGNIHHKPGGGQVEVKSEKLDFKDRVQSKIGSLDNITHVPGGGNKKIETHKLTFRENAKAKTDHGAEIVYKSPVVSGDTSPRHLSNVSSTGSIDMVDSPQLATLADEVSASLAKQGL
# Tau Filaments in Vitro = Tau Filaments in Vitro (Homo sapiens, UniProt P10636); assay: ^3H-Astemizole displacement test, tau filaments in vitro
# Chain of Tau Filaments in Vitro (P10636 1-441 isoform P10636-8): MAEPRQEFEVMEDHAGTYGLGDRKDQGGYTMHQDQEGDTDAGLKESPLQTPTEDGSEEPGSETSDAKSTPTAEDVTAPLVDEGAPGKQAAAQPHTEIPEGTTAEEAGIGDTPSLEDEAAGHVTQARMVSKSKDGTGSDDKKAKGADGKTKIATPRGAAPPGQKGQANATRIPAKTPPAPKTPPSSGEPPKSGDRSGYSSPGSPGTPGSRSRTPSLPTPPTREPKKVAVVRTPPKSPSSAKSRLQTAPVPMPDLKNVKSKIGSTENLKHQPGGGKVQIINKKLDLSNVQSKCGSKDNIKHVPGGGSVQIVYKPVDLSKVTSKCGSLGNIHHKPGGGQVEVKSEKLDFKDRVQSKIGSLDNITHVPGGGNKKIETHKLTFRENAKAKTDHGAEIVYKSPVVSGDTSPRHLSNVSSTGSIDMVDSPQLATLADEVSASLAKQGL
# in vitro = assay: in vitro
# Excerpt: (§1) The analyzed parameters were: specific permeability (Sp), this is an indicator of the compound's ability to cross the hematoencephalic barrier (HEB) by passive diffusion, and the partition coefficient (LogP), which corresponds to the partition coefficient of the compound between Octanol and the pH 7.4 phosphate tampon, which is a predictive element for the compound's penetration of the HEB.
# The Parallel Artificial Membrane Permeability assay (PAMPA) is based on the ability of compounds to diffuse from a donor compartment through a Polyvinylidene Fluoride Membrane Filter (PVDF) covered with a phosphatidylcholine solution at 20% towards a second acceptor compartment, which is analyzed. […] The quantification was carried out by means of spectrophotometry, using pans 1 mm in length and with a capacity of 300 uL.
# [3] = In vivo pharmacokinetics in blood and cerebral tissue (HPLC/UV); details: male, C2 albino, rat, iv, astemizole 16 mg/kg, lansoprazole 8 mg/kg
# [4] = rat, in vivo, iv
# [5] = test system: neurofibrillary tangles (NFTs); assay: Fixation in neurofibrillary tangles in postmortem brain sections of Alzheimer patients; details: co-localization with PHF-1 antibody, tritiated or fluorescent marking
# Protocol: This evaluation was carried out by means of immunohistochemistry with antibodies specific for senile plaque, 6E10 antibody reactive against 6-13 residues of Aβ peptide, and the tau-specific PHF1 antibody.
# In short, postmortem brains of patients with a proven clinical diagnosis of Alzheimer's Disease are set in formalin at 10%, with slices with sections varying from 5 to 200 μm made, preferably with 20 μm. These slices are incubated in benzimidazoles marked pursuant to the present invention and afterwards incubated with the specific 6E10 and PHF1 antibodies to determine the co-localization of the marker in the tau protein structures of the cerebral sections under study.
# For practical purposes and as part of the examples, the co-localization of marked tau with fluorophore conjugate antibodies with the localization of the fluorescently marked drug is analyzed. The co-localization of both drugs with the tau aggregated structures in the hippocampus region, entorhinal cortex and nucleous of Meynert in the postmortem brains with Alzheimer's Disease was reviewed.
# Aβ Fibers = Aβ Fibers (Homo sapiens, UniProt P05067); details: Okamura et al., 2005; cited from earlier work
# Chain of Aβ Fibers (P05067 672-713 limits assumed): as the sequence (P05067 672-713) above
# [6] = Partition coefficient octanol / pH 7.4 tampon; details: for LogP Coefficient: octanol / pH 7.4 tampon, 25° C.; for CNS LogP: partition coefficient in relation to ability to cross the HEB
# Protocol: as §1
# Briefly, the partition coefficient (log Po/w) was determined in a pH 7.4 tampon solution, adjusted with 0.1 M sodium hydroxide. The organic phase utilized octanol saturated with the pH 7.4 tampon solution. A 1 mg/mL solution of the drug in methanol was prepared. Dilutions with concentrations ranging from 0.02 to 0.4 mg/mL were prepared from these solutions. Then […] portions were taken from each of these previously prepared stock solutions in 25 mL volumetric flasks, with the volume completed with the tampon pH 7.4. 25 ml of octanol where then measured and placed in three decantation funnels, with the previously prepared solutions added to each, mixing both phases by vigorous agitation during two minutes. […] Both phases are separated once equilibrium had been reached. The aqueous phase was centrifuged during 3 minutes to ensure complete separation of the phases. The entire process was carried out at a temperature of 25° C. The quantification was carried out with a UVN spectrophotometer.
# mGluR7 = mGluR7 (Homo sapiens, UniProt Q14831); details: Yanamala et al., 2008; cited from earlier work
# Chain of mGluR7 (Q14831 35-915): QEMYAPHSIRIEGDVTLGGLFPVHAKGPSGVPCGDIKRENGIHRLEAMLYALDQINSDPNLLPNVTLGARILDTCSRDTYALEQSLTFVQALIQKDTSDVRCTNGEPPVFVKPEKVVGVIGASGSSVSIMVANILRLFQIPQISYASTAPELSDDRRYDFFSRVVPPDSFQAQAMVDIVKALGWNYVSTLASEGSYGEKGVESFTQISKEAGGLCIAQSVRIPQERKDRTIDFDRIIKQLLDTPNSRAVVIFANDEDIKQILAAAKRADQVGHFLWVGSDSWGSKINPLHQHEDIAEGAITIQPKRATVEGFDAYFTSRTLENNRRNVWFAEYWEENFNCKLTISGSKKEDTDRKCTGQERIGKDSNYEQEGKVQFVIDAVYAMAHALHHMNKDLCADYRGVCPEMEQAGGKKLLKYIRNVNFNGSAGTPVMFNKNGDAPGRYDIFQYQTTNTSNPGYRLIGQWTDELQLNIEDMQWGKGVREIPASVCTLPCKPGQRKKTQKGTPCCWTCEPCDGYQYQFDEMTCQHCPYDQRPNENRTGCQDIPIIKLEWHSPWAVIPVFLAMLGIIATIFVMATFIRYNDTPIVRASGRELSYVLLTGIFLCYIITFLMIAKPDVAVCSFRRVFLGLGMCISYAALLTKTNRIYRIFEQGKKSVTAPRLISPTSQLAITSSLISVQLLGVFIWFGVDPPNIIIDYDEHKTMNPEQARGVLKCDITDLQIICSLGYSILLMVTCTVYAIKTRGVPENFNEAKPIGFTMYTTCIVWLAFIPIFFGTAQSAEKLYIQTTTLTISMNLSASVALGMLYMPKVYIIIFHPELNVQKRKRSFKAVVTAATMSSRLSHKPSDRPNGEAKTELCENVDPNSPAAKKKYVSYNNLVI
# in vivo = details: male, C2 albino, rat, iv
# [7] = saturation test, Tau Protein Aggregates
smiles,measurement,setting,value
Cc1c(OCC(F)(F)[18F])ccnc1C[S+]([O-])c1nc2ccccc2[nH]1 (centres unmarked) [^18F-Lansoprazole],brain/blood bio-distribution relation,at 30 minutes,0.23
same,reaches the brain,at 30 minutes,0.3%
same,brain/blood bio-distribution relation,at 60 minutes,1.27
same,reaches the brain,at 60 minutes,0.14%
COc1ccc(CCN2CCC(Nc3nc4ccccc4n3Cc3ccc(F)cc3)CC2)cc1 [^3H-Astemizole],Kd,[1]; [7],3.94 nM
same,Kd,[2]; saturation test,2.1 nM
Cc1c(OCC(F)(F)F)ccnc1C[S+]([O-])c1nc2ccccc2[nH]1 (centres unmarked) [Lansoprazole],Ki,Alzheimer PHF,833 nM
same,Ki,Tau Filaments in Vitro,2.7 nM
same,CNS Transport,in vitro; PAMPA,Positive
same,Coefficient (Sp) specific permeability,in vitro; PAMPA,3.63E−05
same,Tmax,"[3]; brain (cerebral tissue), maximum concentration (Tmax) in the brain, cerebral tissue",37 min
same,Tmax,"[3]; whole blood (intracardiac), maximum concentration (Tmax) in blood, intracardiac blood",30 min
same,persistency in the encephalon / brain,"[4]; male, C2 albino",at least 3 hours
same,average life in plasma compared with brain,[4],less than in the brain
same,marking of tau aggregates / NFTs in postmortem AD brain sections,[5],bond to the NFTs structures
same,marking of tau aggregates / NFTs in postmortem AD brain sections,[5]; listed as Lansoprazol,fluorescent staining of Tau protein aggregates
same,marking of tau aggregates / NFTs in postmortem AD brain sections,[5]; listed as lansoprazole,efficiently and selectively mark those sectors positive for tau
[3H]C([3H])([3H])Oc1ccc(CCN2CCC(Nc3nc4ccccc4n3Cc3ccc(F)cc3)CC2)cc1 [^3H-Astemizole],Bmax/Kd Index,[1],3.316
same,binding affinity to tau protein aggregate forms compared with Aβ,"[1]; at low concentrations, FIG. 7",greater binding affinity to tau protein aggregate forms than to Aβ
same,Bmax,[1]; [7],13.07 nM
same,Bmax/Kd Index,[2],0.057
same,Bmax,[2]; saturation test,0.12 pmol/nmol Aβ1-42
CNc1ccc(/C=C/c2nc3ccc(OCCF)cc3o2)cc1 [BF168],Ki,Aβ Fibers,6.4 nM
CCCC(C)C1(CC)C(=O)NC(=S)NC1=O (centres unmarked) [Thiopental],LogP Coefficient,[6],1.4
same,Papp,in vitro,170 nm/s
C[N+]12CCC(CC1)C(OC(=O)C(O)(c1ccccc1)c1ccccc1)C2 (centres unmarked) [Clidinium Bromide],LogP Coefficient,[6],−0.092
same,CNS LogP,[6],Unfavorable
same,CNS Transport,in vitro,Negative
same,Papp,in vitro,0.29 nm/s
c1ccc(C(NCCNC(c2ccccc2)c2ccccc2)c2ccccc2)cc1 [AMN82],Binding Energies Autodock,mGluR7,-31.6 kJ/mol
COc1ccc(CCN2CCC(Nc3nc4ccccc4n3Cc3ccc(F)cc3)CC2)cc1 [Astemizole],LogP Coefficient,[6],5.57
same,CNS LogP,[6],Favorable
same,Tmax,in vivo; maximum concentration (Tmax) in blood,28 min
same,Tmax,in vivo; maximum concentration (Tmax) in the brain,55 min
same,Bmax/Kd Index,[1],3.316
same,CNS Transport,in vitro; PAMPA,Positive
same,Papp,in vitro; PAMPA,1470 nm/s
same,Bmax/Kd Index,[2],0.057
same,average life in plasma compared with brain,[4],less than in the brain
same,marking of tau aggregates / NFTs in postmortem AD brain sections,[5],bond to the NFTs structures
same,marking of tau aggregates / NFTs in postmortem AD brain sections,[5]; listed as astemizole,efficiently and selectively mark those sectors positive for tau
